Assay results: US7160685B2, “Diagnostic reagents for human cytomegalovirus and methods of use” (priority 1996, dated 2007)
Where no end group is shown, it is not given here. [ ]: non-standard residue; d: D form. The star is where a group is joined. Palmitoyl = CCCCCCCCCCCCCCCC(=O)*; Cha = N[C@@H](CC1CCCCC1)C(=O)O

Tests used:
[1] = test system: peptide-loaded T2 cells, EBVLCL targets infected with pp65Vac, and HCMV-infected fibroblasts; assay: lipidated peptides with and without IFA in transgenic HLA A2.1 mouse, CRA; type: in vivo; conditions: peptide together with PADRE, with versus without emulsification in IFA
Procedure: Either one or two palmitic acid moieties were attached to the amino terminus of the 495 peptide, and a series of immunization studies were conducted in the transgenic HLA A2.1 mouse.
Separate mice were immunized with unmodified pp65495-503, and either the monolipidated or dilipidated forms of the peptide together with the PADRE epitope. Because it has been previously shown that lipidated peptides will stimulate immunity without co-administration of Freund's adjuvant (H. Schild et al., Eur. J. Immunol. 21:2649–2654 (1991)), immunization of mice with and without emulsifying the peptides in IFA was compared. In a procedure similar to the procedure described in Example 9 above, twelve days post inoculation the mice were splenectomized and the spleen cell population was restimulated twice in vitro. The splenic effectors were then tested in a chromium release assay with peptide-loaded T2 cells, EBVLCL targets infected with pp65Vac, and HCMV-infected fibroblasts (D. J. Diamond et al., Blood 90 (5):1751–1767 (1997)). […] (See FIGS. 1–3)

[2] = test system: HCMV infected and non-infected HLA A*0201 and HLA-mismatched fibroblast targets; assay: single component lipid-HTL-CTL vaccine in transgenic HLA A2.1 mice, fibroblast targets; type: in vivo, mouse; conditions: 100 nmoles s.c., no adjuvant
Procedure: (§1) Molecule A (SEQ ID NO:37) is a vaccine that has the capability of working in mice and humans, whereas molecule B (SEQ ID NO:38) should only be functional in mice. One hundred nanomoles of each of these vaccine peptides in 25% dimethysulfoxide in phosphate buffered saline with 2.5% hexafluoroisopropanol were injected s.c. into separate transgenic HLA A2.1 mice.
(§2) The methods referred to in Examples 9 and 10 were used to derive spleen cell populations containing cells which were specific against pp65 and HCMV. The spleen cells from immunized mice were tested for recognition and cytolysis against specific and non-specific peptide-sensitized targets, HCMV infected and non-infected HLA A*0201 and HLA-mismatched fibroblast targets. […] This stimulative effect of the booster is in agreement with B. Livingston et al., J. Immunol. 159:1383–1392 (1997)).

[3] = test system: peptide-sensitized targets; assay: single component lipid-HTL-CTL vaccine in transgenic HLA A2.1 mice, peptide-sensitized targets; type: in vivo, mouse; conditions: for lysis of p53149-157 sensitized targets by spleen cells of immunized mice / lysis of pp65495-503 peptide sensitized targets by spleen cells of immunized mice: 100 nmoles s.c. in 25% DMSO/PBS with 2.5% hexafluoroisopropanol
Procedure: as §1, §2

HLA A or B Allele = type: cell-based, human; conditions: for HLA A or B Allele Specificity: and subtypes where given
peptide loaded T2 cells = assay: immunization of HLA A2.1 transgenic mice, splenic effectors tested on peptide loaded T2 cells; type: in vivo, mouse; conditions: 50 μg peptide with 20 μg PADRE in IFA s.c., two in vitro restimulation cycles
Description: A transgenic mouse model lacking prior HCMV exposure, the HLA A2.1 mouse (E. J. Bernhard et al., J. Exp. Med. 168:1157–1162 (1988)), was employed to test whether the 495 peptide could stimulate CTLs lacking prior virus exposure and function as a vaccine. These experiments involved in vitro analysis using mouse and human cell targets, either infected with viruses or primed with the peptide of SEQ ID NO:1 or a non-specific control peptide.
Three mice were immunized subcutaneously at the base of the tail with 50 μg of the 495 peptide (pp65495-503) or peptide p53149-157 from p53 (M. Theobald et al., Proc. Natl. Acad. Sci. U.S.A. 92:11993–11997 (1995)) together with 20 μg of the polyclonal helper T lymphocyte (HTL) peptide (PADRE; SEQ ID NO:29) (J. Alexander et al., Immunity. 1:751–761 (1994)) emulsified in IFA (Incomplete Freund's Adjuvant). After twelve days, spleens were removed from immunized mice, a splenic suspension was made, and the effector cells were restimulated for one week using p53149-157 or pp65495-503 peptide sensitized syngeneic lipopolysaccharide-treated splenic blast cells (P. A. Wentworth et al., Eur. J. Immunol. 26:97–101 (1996)). Thereafter, for subsequent in vitro stimulations, the stimulator cells were Jurkat A2.1 cells, prepared by mild acid treatment and subsequent loading of peptides (Z. Yu et al., Journal of Surgical Research 69:337–343 (1997)). […]

Substance | Number of Test Cell Lines (independent cell lines of the same restriction which were sensitized) (HLA A or B Allele) | HLA A or B Allele Specificity (HLA A or B Allele) | also measured
1 PALMITIC ACID-KSS-NLVPMVATV-OH (Palmitoyl-KSSNLVPMVATV-OH; SMILES CCCCCCCCCCCCCCCC(=O)N[C@@H](CCCCN)C(=O)N[C@@H](CO)C(=O)N[C@@H](CO)C(=O)N[C@@H](CC(N)=O)C(=O)N[C@@H](CC(C)C)C(=O)N[C@H](C(=O)N1CCC[C@H]1C(=O)N[C@@H](CCSC)C(=O)N[C@H](C(=O)N[C@@H](C)C(=O)N[C@H](C(=O)N[C@H](C(=O)O)C(C)C)[C@@H](C)O)C(C)C)C(C)C) [SEQ ID NO:31] |  |  | immune response induced (CRA of splenic effectors) [1]: weaker immune response
(Pam)2-KSSAKXVAAWTLKAAANLVPMVATV (KSSAK[Cha]VAAWTLKAAANLVPMVATV; not fully specified (residue 1, N-terminus); printed as (Pam)2-KSSAKXVAAWTLKAAANLVPMVATV; also: (Pam)2- two palmitoyl groups at N-terminal end, attachment not given here) [SEQ ID NO:37] |  |  | lysis of HCMV-infected HLA A*0201 fibroblasts [2]: effectively lysed; lysis of uninfected or HLA-mismatched fibroblasts [2]: not recognized or lysed; immune response after single immunization ([3]; 50 nmole, single immunization): not effective; immune response after second immunization (booster) ([3]; 50 nmole, with booster): detectable immune response; lysis of p53149-157 sensitized targets by spleen cells of immunized mice ([3]; no adjuvant): ineffective; lysis of pp65495-503 peptide sensitized targets by spleen cells of immunized mice ([3]; no adjuvant): effectively lysed; relative potency of molecules A and B ([3]; 100 nmoles s.c., no adjuvant): more potent of the two
(Pam)2-KSSISQAVHAAHAEINEAAANLVPMVATV (also: two palmitoyl groups on the N-terminal lysine, exact amine positions not given here) [SEQ ID NO:38] |  |  | lysis of HCMV-infected HLA A*0201 fibroblasts [2]: effectively lysed; lysis of uninfected or HLA-mismatched fibroblasts [2]: not recognized or lysed; lysis of p53149-157 sensitized targets by spleen cells of immunized mice ([3]; no adjuvant): ineffective; lysis of pp65495-503 peptide sensitized targets by spleen cells of immunized mice ([3]; no adjuvant): effectively lysed
EFFWDANDIY (listed as Human cytomegalovirus) [SEQ ID NO: 13] | 2 | HLA B*44XX | 
FPTKDVAL [SEQ ID NO: 9] | 3 | HLA B*3502, | 
FTSQYRIQGKL (listed as Human cytomegalovirus) [SEQ ID NO: 14] | 4 | HLA A*2402 | 
FVFPTKDVALR (listed as Human cytomegalovirus) [SEQ ID NO: 5] | 3 | HLA A*6801 | 
KSS-NLVPMVATV-OH (KSSNLVPMVATV-OH) [SEQ ID NO:30] |  |  | immune response induced (CRA of splenic effectors) [1]: no activity unless emulsified in IFA
PTFTSQYRIQGKL (listed as Human cytomegalovirus) [SEQ ID NO: 12] | 3 | HLA B*3801/2 | 
RPHERNGFTVL (listed as Human cytomegalovirus) [SEQ ID NO: 10] | 5 | HLA B7 | 
SVLGPISGHVLK [SEQ ID NO: 11] | 5 | HLA A*1101 | 
TPRVTGGGAM (listed as Human cytomegalovirus) [SEQ ID NO: 7] | 5 | HLA B7 | 
p53149-157: peptide p53149-157 from human p53 which binds to HLA A*0201, control peptide (STPPPGTRV; UniProt P04637 149-157, looked up, fragment) |  |  | recognition of T2 cells loaded with the immunizing peptide by murine splenic effectors (peptide loaded T2 cells): substantial recognition; recognition of T2 cells loaded with the non-immunizing peptide (peptide loaded T2 cells): without recognition of the non-immunizing peptide
